Patent US5017618A, “Labile derivatives of ketone analogs of 3-substituted-1-alkylamino-2-propanols and their use as beta-adrenergic blockers” (priority 1989, dated 1991)

What was measured:
iris-ciliary body = conditions: topical application to the eye; cited from earlier work
rabbit iris-ciliary body = experiment: Stereospecificity of enzymatic reduction in iris-ciliary body (chiral derivatization HPLC); assay type: in vivo; conditions: iris-ciliary body of rabbit treated with the oxime
Excerpt: Finally, it was shown that the enzymatic reduction of the ketone is stereospecific. The extract residue from the iris-ciliary body of rabbit treated with 1-(isopropylamino)-3-(1-naphthyloxy)-2-propranolone oxime was reacted with the chiral reagent, 2,3,4,6-tetra-O-acetyl-β-D-glucoppyranosyl isocyanate, in acetonitrile and analyzed by the HPLC procedure of Sedman et al, J. Chromatogr. 278, 199-203, 1983 (Supelcosil LC-18 reversed-phase column of 7.5 cm×4.6 mm with 3 μm particles, mobile phase: 60% acetonitrile in 0.02M aqueous monobasic ammonium phosphate solution, 1 mL/min flow rate, UV detection at 254 nm).

[1] = test system: ocular tissues of rabbits; experiment: In vivo distribution-metabolism in ocular tissues of rabbits; conditions: for Tissue concentration: after topical propranolone oxime HCl 6a 1%
Method: (§1) Adult male New Zealand albino rabbits weighing 2.5-3.5 kg were used. Standard doses of 100 μl of 1% solution of the drugs in saline solution were administered topically to both eyes of each rabbit. After appropriate time intervals (30, 60 and 120 minutes), the animals were sacrificed. Aqueous humor was obtained by making a single puncture at the limbus using a 25 g×5/8" needle attached to 1 cm^3 syringe. Then the cornea and the iris-ciliary body were isolated. The tissues were pooled and homogenized using a Tekmar SDT tissuemizer in ice cold perchloric acid (0.05M) which contained 0.05% sodium metabisulfite as antioxidant. Samples were then rehomogenized in CH3 OH to prepare 10% homogenates, transferred to micro-filters and centrifuged for 20 minutes at 10000 r/minute to precipitate proteins. Aqueous humor was analyzed as such without any further dilution. Aliquots of 5-20 μl of the 10% tissue homogenate samples were analyzed by HPLC.

[2] = as above; conditions: rabbit, topical or ocular, 1 %, Tissue concentration
Method: as §1

[3] = In vivo distribution-metabolism in rat's blood
Method: A group of seven adult male Sprague-Dawley rats weighing 150-250 g was used. […] After 1, 3, 5, 20, 40 and 60 minutes, one mL of blood was withdrawn from the jugular vein and dropped immediately into a tared tube containing 1 mL of ice-cold acetonitrile. The tubes were vigorously shaken, centrifuged, decanted and analyzed for propranolol 1a and propranolone oxime 5a by HPLC. Quantitation was done by using a calibration curve obtained by addition of known amounts of propranolol oxime HCl 6a to blood obtained from a control rat pretreated with saline solution.
A high pressure liquid chromatography (HPLC) method was developed for the assay of the β-blockers and their ketoxime analogs in biological fluids. […] An ASI reverse phase chrompack C18 column, operated at ambient temperature, was used for all separation. The mobile phase used for separation of propranolol 1a and propranolone oxime 5a consisted of water (90 mL), 1-heptanesulfonic acid (1g), 0.1M acetic acid (10 mL), 0.1M triethanolamine (100 mL) and methanol (799 mL).

[4] = cited from earlier work

SMILES: CNCC(=O)c1ccc(O)c(O)c1 [adrenalone]
- conversion to adrenaline in the eye (iris-ciliary body): not adrenalone itself can be converted via a reduction-hydrolysis sequence to deliver adrenaline

SMILES: CC(C)NCC(COc1cccc2ccccc12)=NO [propranolone oxime 5a, 1-(Isopropylamino)-3-(1-naphthyloxy)-2-propanone oxime]
- stereospecificity: enantiomer of propranolol formed (rabbit iris-ciliary body): The sole presence of the S-(-)-enantiomer of 1-(isopropylamino)-3-(1-naphthyloxy)-2-propanol (propranolol) was established
- Tissue concentration ([1]; aqueous humor, 120 min.): 0.00 ± 0.00 mcg/g tissue
- Tissue concentration ([1]; cornea, 120 min.): 0.00 ± 0.00 mcg/g tissue
- Tissue concentration ([1]; iris-ciliary body, 60 min.): 0.00 ± 0.00 mcg/g tissue
- Tissue concentration ([1]; iris-ciliary body, 120 min.): 0.00 ± 0.00 mcg/g tissue
- concentration at 0.5 h ([2]; aqueous humor): 820 ± 90 ng/g
- concentration at 1 h ([2]; aqueous humor): 800 ± 60 ng/g
- concentration at 0.5 h ([2]; cornea): 23800 ± 4910 ng/g
- concentration at 1 h ([2]; cornea): 16400 ± 5800 ng/g
- concentration at 0.5 h ([2]; iris-ciliary body): 7790 ± 1100 ng/g
- metabolite in blood ([3]; after i.v. oxime, disappeared 5 minutes after injection): another more polar compound was detected
- half-life ([3]; blood, iv, 6 mg/kg): 7.64 ± 0.55 min
- presence of oxime in blood ([3]; one hour after i.v. administration): completely disappeared from the blood

SMILES: CC(C)(C)NC[C@H](O)COc1nsnc1N1CCOCC1 [timolol]
- detection of parent β-adrenergic antagonist in eye compartments ([1]; after ophthalmic 6b, low dose level used): could not be found in any of the eye compartments
- side effects secondary to topical ocular administration [4]: a vast number of serious cardiovascular, respiratory, CNS and ocular side effects
